{
  "source": "patent US20070099871A1",
  "about": "“Bioreductively-activated prodrugs” (ANGIOGENE PHARMACEUTICALS LIMITED, priority 2003, published 2007)",
  "key": {"[1]": {"experiment": "Metabolism in liver homogenates", "type": "in vitro ADME", "conditions": "in air, mouse liver homogenate, NADPH, pH 7.4, 37° C.", "method": "Metabolic stability of the compounds and unfavorable release of the drug by oxic liver can be assessed by using, for example, this assay. Freshly-excised mouse liver (approximately 1 g) was homogenised in 15 ml of ice-cold 50 mmol d-3 potassium phosphate buffer at pH 7.4. The homogenates were centrifuged at 1000 RPM for 10 min and the supernatants stored on ice. The metabolism of […] prodrug in air was performed with 0.5 ml liver homogenate (∫4 mg of protein by Bradford assay) with 100 μmol dm^−3 NADPH in 50 mmol dm^−3 potassium phosphate buffer at pH 7.4 incubated at 37° C. Samples (60 μl) were taken at regular intervals and added to an equivalent volume of acetonitrile, then mixed and centrifuged at 14, 300 RPM for 2 min prior to product analysis by HPLC. In this test the compound of Example 1 produced combretastatin A4 at a rate of only 3 pmol·min^−1·mg protein^−1. In contrast the corresponding compound 1-(4-methoxy-3-(5-nitrothiene-2-yl)methoxy)phenyl-2-(3,4,5-trimethoxy)phenyl-Z-ethene, lacking the key features of the invention produced combretastatin at a greater rate of 20 pmol·min^−1·mg proteins^−1."}, "[2]": {"molecular_target": "T1, Supersomal p450 reductase (Homo sapiens, UniProt P16435)", "T1 construct": "purchased Gentest P244", "T1 sequence (P16435 1-677)": "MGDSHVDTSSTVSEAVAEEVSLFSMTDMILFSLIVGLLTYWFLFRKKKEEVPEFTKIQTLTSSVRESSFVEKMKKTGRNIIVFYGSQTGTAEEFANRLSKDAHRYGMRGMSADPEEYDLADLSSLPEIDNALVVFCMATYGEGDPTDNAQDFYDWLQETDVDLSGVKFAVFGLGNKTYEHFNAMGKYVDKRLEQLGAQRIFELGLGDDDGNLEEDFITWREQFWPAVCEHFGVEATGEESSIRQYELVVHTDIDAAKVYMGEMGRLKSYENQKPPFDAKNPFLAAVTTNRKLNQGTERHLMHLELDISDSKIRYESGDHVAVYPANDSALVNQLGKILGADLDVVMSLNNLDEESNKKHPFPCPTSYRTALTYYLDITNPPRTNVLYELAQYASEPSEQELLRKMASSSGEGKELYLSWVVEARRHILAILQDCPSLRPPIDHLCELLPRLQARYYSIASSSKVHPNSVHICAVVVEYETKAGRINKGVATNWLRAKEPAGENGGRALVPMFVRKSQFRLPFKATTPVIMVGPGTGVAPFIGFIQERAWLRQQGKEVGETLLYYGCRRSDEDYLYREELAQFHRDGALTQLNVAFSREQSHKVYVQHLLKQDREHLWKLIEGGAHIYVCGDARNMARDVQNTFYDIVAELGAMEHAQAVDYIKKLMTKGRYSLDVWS", "experiment": "Drug release by cytochrome p450 reductase", "type": "biochemical", "conditions": "NADPH, pH 7.4, 37° C.", "method": "Cytochrome p450 reductase is widely expressed in human tumours as well as in a range of normal tissues and is one of a number of enzymes that can catalyse bioreduction. […] Compounds were dissolved in DMSO to a concentration of 625 μM and 20 μL added to a mixture of 50 mmol dm^−3 potassium phosphate buffer at pH 7.4 (2.4 mL), NADPH (20 μL of a 10 mM solution) and 60 μL of Supersomal™ p450 reductase (Gentest; Catalogue number P244) and incubated at 37° C. For experiments under nitrogen the mixture was degassed with nitrogen for 20 minutes prior to compound addition and overgassed with nitrogen during the incubation. Samples (100 μl) were taken at regular intervals and added to an equivalent volume of acetonitrile, then mixed and centrifuged at 14, 300 RPM for 2 min prior to product analysis by HPLC. In this test the compound of Example 1 produced combretastatin A4 at a rate of […]·min^−1·mg protein^−1 under nitrogen but only 110 pmol·min^−1·mg protein^−1 under air."}, "A549 cells": {"test_system": "A549 cells", "experiment": "Cellular cytotoxicity (Celltiter 96 MTS assay)", "type": "cell-based", "conditions": "A549, 6 h exposure then 72 h incubation", "excerpt": "The cytotoxic or cytostatic properties of compounds of formula (1) and compounds of formula DrXH can be assessed for example, by use, for example, of this assay. The Celltiter 96® Aqueous One Solution Cell Proliferation Assay kit (Promega Corporation, USA) which is a colorimetric method for determining the number of viable cells in proliferation or cytotoxicity assays was used. In this assay the MTS tetrazolium compound (Owen's Reagent) is bioreduced by viable cells into a coloured formazan product which is soluble in tissue culture medium and can be measured by recording absorbance at 490 nm with a 96 well plate reader. A549 cells were seeded in Eagles Minimum Essential Medium supplemented with 10% foetal calf serum and non-essential amino acids at […] on a 96 well plate and allowed to attach for 24 h. Compounds were dissolved in DMSO and diluted with cell culture medium before addition. The cells were exposed to test compound (0 to 2 μmol dm^−3) for 6 h then incubated for a further 72 h. The MTS reagent was added to each well, left for 4 h, then the absorbance measured at 490 nm with a 96 well plate reader. In this assay the compound of Example 1 had no activity at concentrations up to […] whereas combretastatin A4 reduced cell numbers to 50% of control at a concentration of around 250 nM."}},
  "note": "Read-outs that look alike come from different tables or passages of the source.",
  "data": [
    {"smiles": "COc1ccc(/C=C\\c2cc(OC)c(OC)c(OC)c2)cc1OCc1ccc([N+](=O)[O-])s1", "note": "[1-(4-methoxy-3-(5-nitrothiene-2-yl)methoxy)phenyl-2-(3,4,5-trimethoxy)phenyl-Z-ethene]", "values": [
      {"measurement": "Rate of combretastatin A4 production", "setting": "[1]", "value": 20, "unit": "pmol·min^−1·mg protein^−1"}
    ]},
    {"smiles": "COc1ccc(/C=C\\c2cc(OC)c(OC)c(OC)c2)cc1OC(C)(C)c1ccc([N+](=O)[O-])s1", "note": "[Example 1]", "values": [
      {"measurement": "Rate of combretastatin A4 production", "setting": "[2]; under air", "value": 110, "unit": "pmol·min^−1·mg protein^−1"},
      {"measurement": "Rate of combretastatin A4 production", "setting": "[2]; under nitrogen", "value": "710 ppmol·min^−1·mg protein^−1"},
      {"measurement": "IC50", "setting": "A549 cells; Homo sapiens, read-out: No activity at concentrations up to", "value": "> 2000", "unit": "nM"}
    ]},
    {"smiles": "CC(C)(Sc1ncnc2[nH]cnc12)c1ccc([N+](=O)[O-])cc1", "note": "[Example 4, 6-(2-(4-nitrophenyl)propan-2-ylsulfanyl)-9H-purine]", "values": [
      {"measurement": "melting point", "value": "206 to 208", "unit": "°C"}
    ]},
    {"smiles": "COc1ccc(/C=C\\c2cc(OC)c(OC)c(OC)c2)cc1O", "note": "[combretastatin A4, reference compound]", "values": [
      {"measurement": "IC50", "setting": "A549 cells; read-out: Concentration reducing cell numbers to 50% of control", "value": "~250", "unit": "nM"}
    ]}
  ]
}
